Assay results published in the supplement of paper PMC10307832.

What was measured:
Dabrafenib + Trametinib = compound: CC(C)(C)c1nc(-c2cccc(NS(=O)(=O)c3c(F)cccc3F)c2F)c(-c2ccnc(N)n2)s1 [Dabrafenib] + CC(=O)Nc1cccc(-n2c(=O)n(C3CC3)c(=O)c3c(Nc4ccc(I)cc4F)n(C)c(=O)c(C)c32)c1 [Trametinib] (partner 0.02 µM); assay: relative viability (nuclei count vs DMSO), 5 days (fraction); higher = more cells survive
How it was run: (§1)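 One day after seeding in 1536-well plates, lung cancer cell lines were dosed by pin tool. Dosing was either single-drug or a fixed anchor-drug dose plus five library-drug doses (not always all listed) in √10 steps. After 5 days, nuclei were stained in one fix-and-stain step and counted on 4× images, and relative viability is the nuclei count of treated wells over that of vehicle wells, given as the median of duplicate plates.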

VX-702 + Dasatinib = compound: NC(=O)c1ccc(N(C(N)=O)c2c(F)cccc2F)nc1-c1ccc(F)cc1F [VX-702] + Cc1nc(Nc2ncc(C(=O)Nc3c(C)cccc3Cl)s2)cc(N2CCN(CCO)CC2)n1 [Dasatinib] (partner 0.075 µM); assay: as above
How it was run: as §1

Row | Cell Line | relative viability (Dabrafenib + Trametinib; first compound 0.003 µM) | relative viability (Dabrafenib + Trametinib; first compound 0.009487 µM) | relative viability (Dabrafenib + Trametinib; first compound 0.09487 µM) | relative viability (Dabrafenib + Trametinib; first compound 0.3 µM) | relative viability (VX-702 + Dasatinib; first compound 0.02 µM) | relative viability (VX-702 + Dasatinib; first compound 0.2 µM) | relative viability (VX-702 + Dasatinib; first compound 0.6325 µM) | relative viability (VX-702 + Dasatinib; first compound 2 µM) | relative viability (Dabrafenib + Trametinib; first compound 0.03 µM)
1 | NCI-H727 | 0.355 | 0.353 | 0.417 | 0.354 | 0.372 | 0.359 | 0.295 | 0.396 | –
2 | NCI-H838 | 0.51 | 0.614 | 0.429 | 0.506 | 0.348 | 0.285 | 0.304 | 0.339 | 0.428
3 | NCI-H1355 | – | 0.509 | 0.471 | 0.535 | 0.883 | 0.679 | 0.683 | 0.818 | 0.456
4 | NCI-H1395 | – | 1.18 | 0.889 | 0.984 | 0.414 | 0.413 | 0.415 | 0.447 | 0.988
5 | NCI-H1437 | 0.522 | 0.502 | 0.579 | 0.73 | 0.407 | 0.34 | 0.439 | 0.467 | 0.688
6 | NCI-H1563 | – | – | – | – | 0.395 | 0.445 | 0.416 | 0.451 | –
7 | NCI-H1623 | – | – | – | – | 0.515 | 0.453 | 0.422 | 0.5 | –
8 | NCI-H1648 | 0.457 | 0.524 | 0.425 | 0.585 | – | – | – | – | –
9 | NCI-H1650 | 0.671 | 0.609 | 0.666 | 0.673 | 0.385 | 0.346 | 0.334 | 0.265 | 0.552
10 | NCI-H1651 | 0.85 | 0.843 | 0.861 | 0.814 | 0.395 | 0.456 | 0.359 | 0.544 | 0.823
11 | NCI-H1666 | 0.818 | 0.782 | 0.832 | 0.885 | 0.765 | – | 0.876 | 0.641 | 0.837
12 | NCI-H1734 | – | 0.718 | 0.721 | 0.727 | 0.51 | 0.413 | 0.445 | 0.371 | 0.627
13 | NCI-H1755 | 0.779 | 0.733 | 0.75 | 0.749 | 0.44 | 0.432 | 0.367 | 0.415 | 0.758
14 | NCI-H1792 | – | 0.484 | 0.439 | 0.474 | 0.556 | 0.781 | 0.714 | 0.714 | 0.405
15 | NCI-H1793 | – | 0.416 | 0.451 | 0.412 | 0.412 | 0.392 | 0.382 | 0.366 | –
16 | NCI-H1915 | 0.295 | 0.249 | 0.288 | 0.313 | 0.328 | 0.282 | 0.281 | 0.327 | 0.264
17 | NCI-H1944 | 0.409 | 0.426 | 0.401 | 0.404 | 0.226 | 0.212 | 0.221 | 0.169 | 0.403
18 | NCI-H1975 | 0.214 | 0.316 | 0.321 | 0.367 | 0.365 | 0.344 | 0.402 | 0.382 | 0.317
19 | NCI-H1993 | 0.53 | 0.474 | 0.687 | 0.621 | 0.512 | 0.611 | 0.615 | 0.59 | 0.508

Row | Cell Line | relative viability (Dabrafenib + Trametinib; first compound 0.003 µM) | relative viability (Dabrafenib + Trametinib; first compound 0.009487 µM) | relative viability (Dabrafenib + Trametinib; first compound 0.09487 µM) | relative viability (Dabrafenib + Trametinib; first compound 0.3 µM) | relative viability (VX-702 + Dasatinib; first compound 0.02 µM) | relative viability (VX-702 + Dasatinib; first compound 0.2 µM) | relative viability (VX-702 + Dasatinib; first compound 0.6325 µM) | relative viability (VX-702 + Dasatinib; first compound 2 µM) | relative viability (Dabrafenib + Trametinib; first compound 0.03 µM)
20 | NCI-H2009 | 0.262 | 0.266 | 0.354 | 0.399 | 0.35 | 0.401 | 0.429 | 0.452 | 0.312
21 | NCI-H2023 | 0.533 | 0.547 | 0.581 | 0.663 | 0.534 | 0.724 | 0.576 | 0.662 | 0.55
22 | NCI-H2085 | 0.523 | 0.583 | 0.589 | 0.633 | 0.209 | 0.339 | 0.207 | 0.27 | 0.46
23 | NCI-H2087 | – | 0.18 | 0.209 | 0.181 | 0.953 | 0.856 | 0.959 | 0.967 | 0.234
24 | NCI-H2126 | 0.468 | 0.532 | 0.6 | 0.619 | 0.637 | 0.542 | 0.549 | 0.573 | 0.475
25 | NCI-H2170 | 0.908 | 0.982 | 0.839 | 0.919 | 0.532 | 0.654 | 0.544 | 0.74 | 0.842
26 | NCI-H2228 | 0.269 | 0.45 | 0.597 | 0.658 | 0.466 | 0.499 | 0.461 | 0.535 | 0.497
27 | NCI-H2342 | 0.808 | 0.79 | 0.866 | 0.927 | 0.327 | 0.335 | 0.348 | 0.329 | 0.76
28 | NCI-H2347 | – | 0.304 | 0.265 | 0.313 | 0.325 | – | 0.277 | 0.294 | 0.247
29 | NCI-H2405 | – | 0.46 | 0.475 | 0.523 | 0.259 | 0.207 | 0.228 | 0.193 | 0.409
30 | NCI-H3122 | 0.273 | 0.209 | 0.212 | 0.238 | 0.921 | 0.84 | 0.752 | 0.789 | 0.159
31 | PC-3 [JPC-3] | – | 0.812 | 0.893 | 0.863 | 1.03 | 1.05 | 1.07 | 1.06 | 0.751
32 | PC-14 | – | 0.976 | 0.708 | 1 | 0.337 | 0.323 | 0.295 | 0.188 | 0.944
33 | RERF-LC-KJ | 0.811 | 0.939 | 0.944 | 1.05 | 0.837 | 0.781 | 0.87 | 0.901 | 0.961
34 | SK-LU-1 | – | 0.437 | 0.488 | 0.456 | 0.222 | 0.177 | 0.196 | 0.206 | 0.329
35 | SK-MES-1 | – | 0.653 | 0.712 | 0.827 | 0.374 | 0.389 | 0.342 | 0.398 | 0.747
36 | SW 1573 | 0.608 | 0.547 | 0.648 | 0.705 | 0.566 | 0.455 | 0.427 | 0.426 | 0.669
37 | UMC-11 | 0.773 | 0.759 | 0.755 | 0.848 | 0.456 | 0.379 | 0.386 | 0.492 | 0.495
